Publication PMC9727977, “Pharmacokinetics and pharmacodynamics of bioactive compounds in Penyanqing preparation in THP-1 inflammatory cells induced by Lipopolysaccharide” (BMC Complementary Medicine and Therapies, 2022)
Like-named read-outs stand apart in the source and are kept apart here.

Key:
[1] = Stability of the analytes in rat plasma QC samples under different storage conditions; assay type: in vitro ADME
Procedure: QC samples were […], 50, 125, 400 ng/mL for FE, 20, 100, 400 ng/mL for PRO, 100, 200, 500 ng/mL for CH, 100, 200, 500 ng/mL for PE, 200, 400, 800 ng/mL for SAB respectively. All the stock solutions, working solutions and QC samples were stored at 4 ℃ until use. […] The stability of all QC samples was determined by the freshly calibration curve.

[2] = Pharmacokinetics of six compounds in rat plasma after oral administration of PYQ (HPLC-MS/MS); assay type: in vivo, Sprague–Dawley rats; details: for CL/F: n = 6, read-out: CLz/F (converted); for Vd/F: n = 6, read-out: Vz/F; for AUC(0-inf) / AUC(0-t) / AUC(0-∞): non-compartmental; for MRT: read-out: mean residence time (MRT)
Procedure: Animal experiments referred to our previous manuscript. Female Sprague–Dawley rats (n = 10), weighing 200 ± 20 g, were purchased from the Experimental Animal Center of Southern Medical University (Guangzhou, China). These rats were kept adaptively for one week before the experiment, with a temperature of 23 ± 2 ℃, humidity of 40 ± 5%, 12 h light/dark cycle, and random-fed with water and food available. The rats were fasted overnight before administration.
In our previous study, three different doses (5, 10, and 20 mL/kg/day) of PYQ were used to explore the pharmacodynamic effects of it. According to the clinical dose, the PYQ was orally administered to rats at a dose of 8 mL/kg in this experiment. The plasma of 500 µL was obtained via the retinal venous plexus at 0.083, 0.25, 0.5, 0.75, 1, 2, 4, 8, 12 and 24 h after gavage administration. Then all samples were centrifuged at 4 ℃ for 5 min at 8,000 rpm, and were stored at -80 ℃ in refrigerator until further analysis.
For the pharmacokinetic study of PRO, PE, AST, FE, and CH, 100 µL plasma sample was mixed with 10 µL internal standard (IS, 2 µg/mL naringin), and 700 µL methanol was added for protein sedimentation. The mixture was vortexed for 6 min and centrifuged at 13, 000 rpm for 15 min at 4 ℃. Next, the supernatant was dried in a vacuum drying oven and vortexed with 100 µL of 50% methanol for 6 min, and then the mixture was centrifuged at 13, 000 rpm for 30 min at 4 ℃, and the supernatant was filtered by 0.22 µM filter membrane for HPLC–MS/MS analysis.
For the pharmacokinetic study of SAB, 100 µL plasma was mixed with 10 µL IS (2 µg/mL naringin) and then acidified by mixing with 25 µL of 20% hydrochloric acid. After addition of 1 mL of ethyl acetate, the mixture was vortexed for 6 min and centrifuged at 13,000 rpm for 15 min. The organic layer was transferred to an Eppendorf tube and dried in a vacuum drying oven. The residue was dissolved in 100 µL methanol. After centrifugation at 13,000 rpm for 30 min, the supernatant was filtered by 0.22 µM filter membrane for HPLC–MS/MS analysis.
In this study, the negative ESI multiple reaction monitoring (MRM) mode of AB Sciex API-4000 LC–MS/MS Systems was used to measure SAB, PRO, PE, AST, FE, and CH in rat plasma, respectively. The following setups of the analyzers were used: the temperatures were all 500 ℃; GS1, 55 psi; GS2, 55 psi; curtain gas, 10 psi.
For the chromatographic analysis of PRO, PE, AST, FE, and CH, the chromatographic column used was Agilent Poroshell 120 EC-C18 (100 mm × 3.0 mm, 2.7 µm), and the column temperature was maintained at 25 ℃. The mobile phase was consisted of A (methanol) and B (0.2% aqueous formic acid), and the flow rate was 0.4 mL/min. The gradient elution was carried out as follows: 10% A at 0 ~ 1 min, 10% A-95% A at 1 ~ 2 min, 95% A at 2 ~ 5 min, 95% A-10% A at 5 ~ 5.1 min, 10% A at 5.1 ~ 6 min. 5 µL sample was injected into the system for analysis.
For the chromatographic analysis of SAB, the chromatographic column used was ZORBAX SB-C18 (100 mm × 2.1 mm, 3.5 µm), and the column temperature was maintained at 25 ℃. The mobile phase was consisted of A (methanol) and B (0.2% aqueous formic acid), and the flow rate was 0.4 mL/min. The gradient elution was carried out as follows: 30% A at 0 ~ 0.5 min, 30% A-90% A at 0.5 ~ 1 min, 90% A at 1 ~ 4.5 min, 90% A-30% A at 4.5 ~ 4.6 min, 30% A at 4.6 ~ 6 min. 5 µL sample was injected into the system for analysis.
The pharmacokinetic parameters were calculated by non-compartmental model of the DAS 2.0 software package. The data were presented as mean ± standard deviation (SD). Statistical calculations were performed using SPSS statistical software, and a value of p < 0.05 was denoted statistically significant difference.

[3] = high QC level, nominal ng/mL: AST 500, FE 400, PRO 400, CH 500, PE 500, SAB 800, n = 6
[4] = low QC level, nominal ng/mL: AST 100, FE 50, PRO 20, CH 100, PE 100, SAB 200, n = 6
[5] = middle QC level, nominal ng/mL: AST 200, FE 125, PRO 100, CH 200, PE 200, SAB 400, n = 6
[6] = female, Sprague-Dawley, po, PYQ orally 8 mL/kg, mean ± SD, n = 6
[7] = female, Sprague-Dawley, po, PYQ orally 8 mL/kg, mean ± SD
[8] = female, Sprague-Dawley, po, PYQ orally 8 mL/kg, mean ± SD, n = 6, read-out: Cmax
[9] = female, Sprague-Dawley, po, PYQ orally 8 mL/kg, mean ± SD, n = 6, read-out: tmax
[10] = female, Sprague-Dawley, po, PYQ orally 8 mL/kg, mean ± SD, n = 6, read-out: AUC(0-t)
[11] = female, Sprague-Dawley, po, after PYQ administration
[12] = PYQ orally 8 mL/kg, mean ± SD, n = 6

Compound | half-life [2, 6] [h] | CL/F [2, 7] [mL/min/kg] | Cmax [2, 8] [ng/mL] | Vd/F [2, 7] [L/kg] | Tmax [2, 9] [h] | AUC(0-inf) [2, 6] [ng·h/mL] | AUC(0-t) [2, 10] [ng·h/mL] | MRT [2, 11] [h] | In 56 ℃ for 1 h measured value [1, 3] | Room temperature 24 h measured value [1, 3] | Three freeze-thaw cycles measured value [1, 3] | In 56 ℃ for 1 h measured value [1, 4] | Room temperature 24 h measured value [1, 4] | Three freeze-thaw cycles measured value [1, 4] | In 56 ℃ for 1 h measured value [1, 5] | Room temperature 24 h measured value [1, 5] | Three freeze-thaw cycles measured value [1, 5] | Cmax [2, 12] [ng/mL] | AUC(0-∞) [2, 12] [ng·h/mL] | Tmax [2, 12] [h] | also measured
C[C@@]12C[C@@]3(O)O[C@@H](O1)[C@]1(COC(=O)c4ccccc4)[C@H]3C[C@@]12O[C@@H]1O[C@H](CO)[C@@H](O)[C@H](O)[C@H]1O [PE, paeoniflorin] |  | 153 | 2040 ± 590 | 31.3 ± 4.08 | 0.25 | 2220 ± 310 | 2210 ± 310 | ≤ 3 | 495.87 ± 6.50 | 499.23 ± 2.58 | 492.85 ± 7.60 | 95.32 ± 1.06 | 99.44 ± 2.43 | 99.68 ± 2.83 | 196.25 ± 4.08 | 199.64 ± 2.59 | 197.55 ± 3.60 |  |  |  | t1/2 [2, 12]: 2.37 ± 0.20 h
O=Cc1ccc(O)c(O)c1 [PRO, protocatechualdehyde] | 0.93 ± 0.06 | 310 | 1430 ± 220 | 24.9 ± 1.96 |  | 1080 ± 70 | 1050 ± 60 | ≤ 3 | 394.26 ± 8.01 | 398.27 ± 4.21 | 395.66 ± 7.14 | 19.88 ± 0.43 | 20.81 ± 0.85 | 20.62 ± 1.06 | 98.21 ± 2.33 | 100.34 ± 1.48 | 97.77 ± 2.49 |  |  |  | Tmax ([2]; female, Sprague-Dawley, in vivo, po, PYQ orally 8 mL/kg, mean ± SD, n = 6, read-out: tmax): 0.25 h
salvianolic acid B [SAB] |  |  |  |  |  |  |  |  | 791.11 ± 5.98 | 792.27 ± 3.94 | 790.71 ± 3.52 | 196.22 ± 3.40 | 208.88 ± 8.46 | 194.10 ± 8.56 | 395.20 ± 10.70 | 391.06 ± 6.16 | 388.99 ± 6.75 | 1590 ± 330 | 3700 ± 460 | 0.29 ± 0.10 | CLz/F [2, 12]: 91.3 ± 11.3 mL/min/kg; Vz/F [2, 12]: 59.83 ± 25.48 L/kg; t1/2 [2, 12]: 7.60 ± 3.34 h; AUC(0-t) [2, 12]: 3400 ± 450 ng·h/mL; mean residence time (MRT) ([2]; after PYQ administration): 5.67 ± 0.66 h

Continued, in another order:

half-life [2, 6] [h] | CL/F [2, 7] [mL/min/kg] | Cmax [2, 8] [ng/mL] | Vd/F [2, 7] [L/kg] | Tmax [2, 9] [h] | AUC(0-inf) [2, 6] [ng·h/mL] | AUC(0-t) [2, 10] [ng·h/mL] | MRT [2, 11] [h] | Compound | In 56 ℃ for 1 h measured value [1, 3] | Room temperature 24 h measured value [1, 3] | Three freeze-thaw cycles measured value [1, 3] | In 56 ℃ for 1 h measured value [1, 4] | Room temperature 24 h measured value [1, 4] | Three freeze-thaw cycles measured value [1, 4] | In 56 ℃ for 1 h measured value [1, 5] | Room temperature 24 h measured value [1, 5] | Three freeze-thaw cycles measured value [1, 5] | Cmax [2, 12] [ng/mL] | AUC(0-∞) [2, 12] [ng·h/mL] | Tmax [2, 12] [h] | also measured
3.42 ± 0.34 | 159 | 2270 ± 350 | 45.4 ± 6.31 | 0.25 | 2090 ± 200 | 2080 ± 200 | ≤ 3 | C[C@@H]1O[C@@H](O[C@H]2C(=O)c3c(O)cc(O)cc3O[C@@H]2c2ccc(O)c(O)c2)[C@H](O)[C@H](O)[C@H]1O [AST, astilbin] | 495.21 ± 8.43 | 498.07 ± 3.95 | 497.15 ± 6.61 | 98.46 ± 2.77 | 99.68 ± 2.31 | 97.89 ± 4.06 | 194.85 ± 6.53 | 199.01 ± 3.99 | 193.37 ± 7.61 |  |  |  | 
1.86 ± 0.21 | 356 |  | 57.2 ± 7.48 |  |  | 920 ± 60 | ≤ 3 | O=C(/C=C/c1ccc(O)c(O)c1)O[C@@H]1C[C@](O)(C(=O)O)C[C@@H](O)[C@H]1O [CH, chlorogenic acid] | 489.60 ± 8.91 | 499.00 ± 6.02 | 485.90 ± 9.73 | 97.22 ± 3.31 | 99.91 ± 2.94 | 98.55 ± 2.93 | 195.56 ± 7.88 | 200.03 ± 9.56 | 191.77 ± 8.91 | 1370 ± 60 | 940 ± 90 |  | 
0.9 ± 0.02 | 230 | 1200 ± 150 | 17.9 ± 3.28 |  | 1480 ± 240 | 1430 ± 230 | ≤ 3 | COc1cc(/C=C/C(=O)O)ccc1O [FE, ferulic acid] | 399.13 ± 3.26 | 403.59 ± 7.84 | 400.59 ± 6.95 | 48.33 ± 2.76 | 49.14 ± 2.35 | 49.41 ± 1.85 | 123.42 ± 1.76 | 122.72 ± 2.65 | 124.36 ± 2.46 |  |  | 0.25 ± 0 | 
